Laboratory results published in ChEMBL document CHEMBL3045965, “Design, synthesis, and evaluation of fluorescent cell-penetrating peptidic antagonists of Grb2-SH2 for targeting MCF-7 breast cancer cells” (Med Chem Res, 2013).
Square brackets hold non-standard residues; d marks the D form. Peptide text beside a SMILES is read from it. * marks the point of attachment. Fmoc = O=C(OCC1c2ccccc2-c2ccccc21)*; Aib = CC(C)(N)C(=O)O

What was measured:
MCF7 [1] = experiment: Cytotoxicity against Homo sapiens (human) MCF7 cells assessed as cell viability at 50 uM after 48 hr by MTT assay relative to control; assay type: functional; conditions: MCF7, 48 h, read-out: Activity
MCF7 [2] = experiment: Cytotoxicity against Homo sapiens (human) MCF7 cells assessed as cell viability at 75 uM after 48 hr by MTT assay relative to control; assay type: functional; conditions: MCF7, 48 h, read-out: Activity
MCF7 [3] = experiment: Cytotoxicity against Homo sapiens (human) MCF7 cells assessed as cell viability at 25 uM after 48 hr by MTT assay relative to control; assay type: functional; conditions: MCF7, 48 h, read-out: Activity
MCF7 [4] = experiment: Cytotoxicity against Homo sapiens (human) MCF7 cells assessed as cell viability at 100 uM after 48 hr by MTT assay relative to control; assay type: functional; conditions: MCF7, 48 h, read-out: Activity
MCF7 [5] = experiment: Cytotoxicity against Homo sapiens (human) MCF7 cells assessed as cell viability after 48 hr by MTT assay; assay type: functional, cell-based; conditions: MCF7, 48 h
MCF7 [6] = experiment: Cytotoxicity against Homo sapiens (human) MCF7 cells assessed as cell viability after 24 hr by MTT assay; assay type: functional, cell-based; conditions: MCF7, 24 h
[7] = target: Growth factor receptor-bound protein 2 (Homo sapiens, UniProt P62993); experiment: Binding affinity to Grb2-SH2 (unknown origin) by surface plasmon resonance analysis

| Kd [7] [µM] | Structure (SMILES) | viability at 50 µM (MCF7 [1]) [%] | viability at 75 µM (MCF7 [2]) [%] | viability at 25 µM (MCF7 [3]) [%] | viability at 100 µM (MCF7 [4]) [%] | IC50 (MCF7 [5]) [µM] | IC50 (MCF7 [6]) [µM] |
| --- | --- | --- | --- | --- | --- | --- | --- |
| – | N=C(N)NCCC[C@H](NC(=O)[C@H](CCCNC(=N)N)NC(=O)[C@H](CCCCN)NC(=O)[C@H](CCCCN)NC(=O)[C@H](CCCNC(=N)N)NC(=O)CN)C(=O)O (H-GRKKRR-OH) | 98.5 | 102 | 93.9 | 95.4 | > 100 | – |
| – | CC[C@H](C)[C@H](NC(=O)[C@H](C)NC(=O)[C@@H](N)Cc1ccc(O)cc1)C(=O)N[C@@H](C)C(=O)N[C@@H](Cc1c[nH]c2ccccc12)C(=O)N[C@H](C(=O)N[C@@H](CCCCN)C(=O)N[C@@H](C)C(=O)N[C@@H](Cc1ccccc1)C(=O)N[C@H](C(=O)N[C@@H](CCCNC(=N)N)C(=O)N[C@@H](CCCCN)C(=O)N[C@@H](CC(C)C)C(=O)N[C@@H](CCCNC(=N)N)C(=O)N[C@@H](CCCCN)C(=O)N[C@@H](CCC(=O)O)C(=O)N[C@@H](Cc1ccc(O)cc1)C(=O)NC(C)(C)C(=O)N[C@@H](CC(N)=O)C(=O)O)[C@@H](C)CC)C(C)C (H-YAIAWVKAFIRKLRKEY[Aib]N-OH) | 74.4 | 64.5 | 83.8 | 59.9 | > 100 | – |
| – | CC(C)(NC(=O)[C@H](Cc1ccc(O)cc1)NC(=O)[C@@H](N)CCC(=O)O)C(=O)N[C@@H](CC(N)=O)C(=O)NCC(=O)N[C@@H](CCCNC(=N)N)C(=O)N[C@@H](CCCCN)C(=O)N[C@@H](CCCCN)C(=O)N[C@@H](CCCNC(=N)N)C(=O)N[C@@H](CCCNC(=N)N)C(=O)O (H-EY[Aib]NGRKKRR-OH) | 99.4 | 91.5 | 90.7 | 93.1 | > 100 | – |
| – | CC(C)(NC(=O)[C@H](Cc1ccc(O)cc1)NC(=O)[C@H](CCC(=O)O)NC(=O)[C@H](CCCNC(=N)N)NC(=O)[C@H](CCCNC(=N)N)NC(=O)[C@H](CCCCN)NC(=O)[C@H](CCCCN)NC(=O)[C@H](CCCNC(=N)N)NC(=O)CN)C(=O)N[C@@H](CC(N)=O)C(=O)O (H-GRKKRREY[Aib]N-OH) | 91.6 | 83.2 | 90.9 | 82.1 | > 100 | – |
| – | CC(C)(NC(=O)[C@H](Cc1ccc(O)cc1)NC(=O)[C@H](CCC(=O)O)NC(=O)OCC1c2ccccc2-c2ccccc21)C(=O)N[C@@H](CC(N)=O)C(=O)NCC(=O)N[C@@H](CCCNC(=N)N)C(=O)N[C@@H](CCCCN)C(=O)N[C@@H](CCCCN)C(=O)N[C@@H](CCCNC(=N)N)C(=O)N[C@@H](CCCNC(=N)N)C(=O)O (Fmoc-EY[Aib]NGRKKRR-OH) | 91.6 | 90.9 | 84.2 | 85.3 | > 100 | – |
| – | CC[C@H](C)[C@H](NC(=O)[C@H](C)NC(=O)[C@@H](NC(=O)[C@H](Cc1ccc(O)cc1)NC(=O)[C@H](CC(N)=O)NC(=O)C(C)(C)NC(=O)[C@H](Cc1ccc(O)cc1)NC(=O)[C@@H](N)CCC(=O)O)[C@@H](C)O)C(=O)N[C@@H](C)C(=O)N[C@@H](Cc1c[nH]c2ccccc12)C(=O)N[C@H](C(=O)N[C@@H](CCCCN)C(=O)N[C@@H](C)C(=O)N[C@@H](Cc1ccccc1)C(=O)N[C@H](C(=O)N[C@@H](CCCNC(=N)N)C(=O)N[C@@H](CCCCN)C(=O)N[C@@H](CC(C)C)C(=O)N[C@@H](CCCNC(=N)N)C(=O)N[C@@H](CCCCN)C(=O)O)[C@@H](C)CC)C(C)C (H-EY[Aib]NYTAIAWVKAFIRKLRK-OH) | 80.4 | 40.5 | 95.4 | 19.3 | 67.1 | 87 |
| – | CC[C@H](C)[C@H](NC(=O)[C@H](C)NC(=O)[C@@H](NC(=O)[C@@H](N)Cc1ccc(O)cc1)[C@@H](C)O)C(=O)N[C@@H](C)C(=O)N[C@@H](Cc1c[nH]c2ccccc12)C(=O)N[C@H](C(=O)N[C@@H](CCCCN)C(=O)N[C@@H](C)C(=O)N[C@@H](Cc1ccccc1)C(=O)N[C@H](C(=O)N[C@@H](CCCNC(=N)N)C(=O)N[C@@H](CCCCN)C(=O)N[C@@H](CC(C)C)C(=O)N[C@@H](CCCNC(=N)N)C(=O)N[C@@H](CCCCN)C(=O)O)[C@@H](C)CC)C(C)C (H-YTAIAWVKAFIRKLRK-OH) | 97.7 | 96.4 | 101 | 94.9 | > 100 | – |
| – | CC[C@H](C)[C@H](NC(=O)[C@H](C)NC(=O)[C@@H](NC(=O)[C@H](Cc1ccc(O)cc1)NC(=O)[C@H](CC(N)=O)NC(=O)C(C)(C)NC(=O)[C@H](Cc1ccc(O)cc1)NC(=O)[C@H](CCC(=O)O)NC(=O)OCC1c2ccccc2-c2ccccc21)[C@@H](C)O)C(=O)N[C@@H](C)C(=O)N[C@@H](Cc1c[nH]c2ccccc12)C(=O)N[C@H](C(=O)N[C@@H](CCCCN)C(=O)N[C@@H](C)C(=O)N[C@@H](Cc1ccccc1)C(=O)N[C@H](C(=O)N[C@@H](CCCNC(=N)N)C(=O)N[C@@H](CCCCN)C(=O)N[C@@H](CC(C)C)C(=O)N[C@@H](CCCNC(=N)N)C(=O)N[C@@H](CCCCN)C(=O)O)[C@@H](C)CC)C(C)C (Fmoc-EY[Aib]NYTAIAWVKAFIRKLRK-OH) | 86.5 | 77.3 | 94.1 | 79.8 | > 100 | – |
| – | CC[C@H](C)[C@H](NC(=O)[C@H](C)NC(=O)[C@@H](NC(=O)[C@H](Cc1ccc(O)cc1)NC(=O)[C@H](Cc1ccc(O)cc1)NC(=O)[C@H](CCC(=O)O)NC(=O)C(C)(C)NC(=O)[C@@H](N)CC(N)=O)[C@@H](C)O)C(=O)N[C@@H](C)C(=O)N[C@@H](Cc1c[nH]c2ccccc12)C(=O)N[C@H](C(=O)N[C@@H](CCCCN)C(=O)N[C@@H](C)C(=O)N[C@@H](Cc1ccccc1)C(=O)N[C@H](C(=O)N[C@@H](CCCNC(=N)N)C(=O)N[C@@H](CCCCN)C(=O)N[C@@H](CC(C)C)C(=O)N[C@@H](CCCNC(=N)N)C(=O)N[C@@H](CCCCN)C(=O)O)[C@@H](C)CC)C(C)C (H-N[Aib]EYYTAIAWVKAFIRKLRK-OH) | 78.9 | 56.9 | 85.3 | 40.6 | 72.4 | – |
| 0.0063 | CC(C)(NC(=O)[C@H](Cc1ccc(O)cc1)NC(=O)[C@H](CCC(=O)O)NC(=O)OCC1c2ccccc2-c2ccccc21)C(=O)N[C@@H](CC(N)=O)C(=O)O (Fmoc-EY[Aib]N-OH) | 104 | 98.2 | 104 | 95.1 | – | – |
